Measurements published in patent US20120270237A9, “METHODS FOR THE IDENTIFICATION OF KINASE INTERACTING MOLECULES AND FOR THE PURIFICATION OF KINASE PROTEINS” (Cellzone AG, priority 2009, published 2012).

Assays:
Details in all cases: 10 μM free compound
PITSLRE = test: Kinobeads competition binding, HL60 cell lysate; design: species or system human
Experimental: To one aliquot of cell lysate 10 μM of the free compound (FIG. 3, CZC31326) was added and allowed to bind to proteins in the lysate. Then the affinity matrix with the immobilized compound (Example 1) was added to capture proteins that were not interacting with the previously added free compound. Beads were separated from the lysate and bead bound proteins were eluted in SDS sample buffer and subsequently separated by SDS-Polyacrylamide gel electrophoresis (FIG. 4). Suitable gel bands were cut out and subjected to in-gel proteolytic digestion with trypsin. The second lysate aliquot was processed identically, however no free compound was added (DMSO solvent control). Peptides originating from samples 1 and 2 were labeled with iTRAQ reagents (iTRAQ 114 and iTRAQ 117) and the combined samples were analyzed with a nano-flow liquid chromatography system coupled online to a tandem mass spectrometer (LC-MS/MS) experiment followed by iTRAQ reporter ion quantification in the MS/MS spectra (Ross et al., 2004. Mol. Cell. Proteomics 3(12):1154-1169). […] The iTRAQ reagents are a set of multiplexed, amine-specific, stable isotope reagents that can label peptides on amino groups in up to four different biological samples enabling simultaneous identification and quantitation of peptides. […]

AMPKa1 = AMPKa1 (Homo sapiens, UniProt Q13131); test: Kinobeads competition binding, HeLa Placenta lysate mix; design: endogenous in cells
How it was run: (§1)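 Free compound (10 μM) was allowed to bind lysate proteins before affinity beads bearing immobilized compound were added. Bound material, together with that from a DMSO control, was digested and measured by iTRAQ LC-MS/MS.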

Erk1 = Erk1 (Homo sapiens, UniProt P27361); test: as above; design: endogenous in cells
How it was run: as §1

PAK4 = PAK4 (Homo sapiens, UniProt O96013); test: as above; design: endogenous in cells
How it was run: as §1

PKD2 = target: T1, PKD2 (Homo sapiens, UniProt Q9BZL6); test: as above; design: endogenous in cells
T1 sequence (Q9BZL6 1-878): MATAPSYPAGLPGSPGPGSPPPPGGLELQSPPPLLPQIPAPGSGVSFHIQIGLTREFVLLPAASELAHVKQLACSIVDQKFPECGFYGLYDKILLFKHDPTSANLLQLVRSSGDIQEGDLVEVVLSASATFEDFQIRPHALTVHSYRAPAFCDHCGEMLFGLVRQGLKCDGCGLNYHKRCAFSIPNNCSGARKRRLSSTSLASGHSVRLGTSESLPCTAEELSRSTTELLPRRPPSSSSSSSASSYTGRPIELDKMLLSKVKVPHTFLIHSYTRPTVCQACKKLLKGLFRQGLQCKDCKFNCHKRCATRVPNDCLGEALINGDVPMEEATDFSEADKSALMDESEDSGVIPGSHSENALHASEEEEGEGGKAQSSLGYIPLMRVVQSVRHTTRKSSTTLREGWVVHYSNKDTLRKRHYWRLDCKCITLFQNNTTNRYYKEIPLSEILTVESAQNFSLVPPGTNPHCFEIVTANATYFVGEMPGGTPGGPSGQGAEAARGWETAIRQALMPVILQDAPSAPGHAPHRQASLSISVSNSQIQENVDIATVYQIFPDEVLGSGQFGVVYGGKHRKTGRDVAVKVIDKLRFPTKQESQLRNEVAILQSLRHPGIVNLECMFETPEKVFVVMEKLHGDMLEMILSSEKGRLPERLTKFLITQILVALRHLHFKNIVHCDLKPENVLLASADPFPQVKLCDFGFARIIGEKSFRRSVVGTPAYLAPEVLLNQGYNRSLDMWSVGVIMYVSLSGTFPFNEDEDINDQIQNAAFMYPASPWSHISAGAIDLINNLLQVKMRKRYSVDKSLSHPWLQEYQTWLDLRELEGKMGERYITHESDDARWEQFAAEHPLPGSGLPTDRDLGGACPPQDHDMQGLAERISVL
How it was run: as §1

AMPKa1, sequence (Q13131 whole entry): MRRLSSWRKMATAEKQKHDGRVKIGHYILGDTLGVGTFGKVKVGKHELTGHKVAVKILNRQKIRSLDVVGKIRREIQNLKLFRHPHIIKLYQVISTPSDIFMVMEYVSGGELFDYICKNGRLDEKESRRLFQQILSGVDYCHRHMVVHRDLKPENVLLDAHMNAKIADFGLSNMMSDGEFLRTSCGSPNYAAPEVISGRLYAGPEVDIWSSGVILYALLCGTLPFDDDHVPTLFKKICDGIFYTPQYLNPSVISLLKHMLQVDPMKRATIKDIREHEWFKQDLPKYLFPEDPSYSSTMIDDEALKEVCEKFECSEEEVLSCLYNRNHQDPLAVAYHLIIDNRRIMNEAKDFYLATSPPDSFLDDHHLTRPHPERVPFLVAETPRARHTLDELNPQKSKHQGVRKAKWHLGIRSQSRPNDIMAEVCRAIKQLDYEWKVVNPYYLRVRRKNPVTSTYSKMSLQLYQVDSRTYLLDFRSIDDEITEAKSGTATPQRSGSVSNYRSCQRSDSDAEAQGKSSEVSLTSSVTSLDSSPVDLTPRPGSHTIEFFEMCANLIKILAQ
AMPKa1, sequence (Q9Y478 2-270 partner limits assumed): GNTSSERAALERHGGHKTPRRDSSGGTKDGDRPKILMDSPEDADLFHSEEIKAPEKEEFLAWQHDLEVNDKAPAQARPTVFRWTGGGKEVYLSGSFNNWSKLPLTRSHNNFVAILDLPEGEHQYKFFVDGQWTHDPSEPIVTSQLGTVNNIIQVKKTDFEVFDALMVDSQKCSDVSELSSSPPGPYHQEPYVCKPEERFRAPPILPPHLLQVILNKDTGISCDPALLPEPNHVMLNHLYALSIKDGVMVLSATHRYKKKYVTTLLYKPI
AMPKa1, sequence (P54619 whole entry partner): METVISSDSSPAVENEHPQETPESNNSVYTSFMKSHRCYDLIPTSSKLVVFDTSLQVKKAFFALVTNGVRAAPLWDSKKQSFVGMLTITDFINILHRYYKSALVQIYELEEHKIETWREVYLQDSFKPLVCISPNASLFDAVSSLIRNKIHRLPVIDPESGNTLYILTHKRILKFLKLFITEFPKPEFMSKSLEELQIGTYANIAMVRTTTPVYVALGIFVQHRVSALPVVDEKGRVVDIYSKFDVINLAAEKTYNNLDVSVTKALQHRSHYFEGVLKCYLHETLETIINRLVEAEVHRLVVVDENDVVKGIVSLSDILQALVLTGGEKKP
Erk1, sequence (P27361 whole entry): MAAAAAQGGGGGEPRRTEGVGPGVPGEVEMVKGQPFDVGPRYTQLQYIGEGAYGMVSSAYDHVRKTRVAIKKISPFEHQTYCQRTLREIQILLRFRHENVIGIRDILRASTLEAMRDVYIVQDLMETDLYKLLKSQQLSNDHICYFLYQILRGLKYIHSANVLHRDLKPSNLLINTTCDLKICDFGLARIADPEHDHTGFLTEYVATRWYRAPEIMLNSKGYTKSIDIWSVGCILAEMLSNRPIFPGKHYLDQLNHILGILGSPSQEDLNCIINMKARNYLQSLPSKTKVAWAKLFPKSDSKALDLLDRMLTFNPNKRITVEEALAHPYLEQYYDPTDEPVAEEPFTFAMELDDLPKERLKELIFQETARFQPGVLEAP
PAK4, sequence (O96013 whole entry): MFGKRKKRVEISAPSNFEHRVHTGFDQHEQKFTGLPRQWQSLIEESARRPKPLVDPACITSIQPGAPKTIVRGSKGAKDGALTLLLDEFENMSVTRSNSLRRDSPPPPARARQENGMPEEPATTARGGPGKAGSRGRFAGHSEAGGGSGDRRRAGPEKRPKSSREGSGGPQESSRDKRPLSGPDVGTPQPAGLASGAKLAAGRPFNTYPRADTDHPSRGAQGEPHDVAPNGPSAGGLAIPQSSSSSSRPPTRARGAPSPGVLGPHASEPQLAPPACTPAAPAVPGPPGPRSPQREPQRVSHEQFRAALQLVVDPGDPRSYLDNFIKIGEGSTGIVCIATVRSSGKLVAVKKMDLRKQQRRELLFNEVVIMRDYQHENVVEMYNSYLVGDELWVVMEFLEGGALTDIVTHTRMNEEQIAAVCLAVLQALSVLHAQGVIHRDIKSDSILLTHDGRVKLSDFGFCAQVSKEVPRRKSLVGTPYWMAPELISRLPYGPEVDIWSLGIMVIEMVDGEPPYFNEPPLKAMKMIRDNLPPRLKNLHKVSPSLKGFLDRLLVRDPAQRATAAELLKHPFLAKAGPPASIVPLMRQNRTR

Question: `CS(=O)(=O)Nc1ccccc1Nc1nc(Nc2cccc(OCCN)c2)ncc1Cl` [CZC31326, N-(2-(2-(3-(2-aminoethoxy)phenylamino)-5-chloropyrimidin-4-ylamino)phenyl)methanesulfonamide] was tested. Which Competition % (PITSLRE) did it give?
Answer: 94.8%

Question: What about the inhibition at 10 µM (AMPKa1) of the same compound?
Answer: 94.9%

Question: And the inhibition at 10 µM (Erk1)?
Answer: 77.8%

Question: And the inhibition at 10 µM (PAK4)?
Answer: 94.2%

Question: And the inhibition at 10 µM (PKD2)?
Answer: 95.4%
